Key:
[1] = target: acetylcholine esterase (Homo sapiens, UniProt P22303); test: biochemical; conditions: IC 50 for acetylcholine esterase inhibition
Description: The determination of the acetylcholine esterase inhibition was effected according to the method of Ellmann et al., Biochem. Pharmacol. 7 (1961) 88, and/or according to the method of Johnson et al., Analytical Biochemistry 64 (1975), 229.

[2] = tested on: Sigma; test: Sigma receptor binding, [3H]-DTG (Weber et al.); conditions: for Percentage inhibition: [3H]-DTG
Description: (§1) Furthermore, the compounds of formula I have affinity for sigma receptors, determined according to Weber et al., Proc. Natl. Acad. Sci. USA 83 (1986), 8784) and in part also for muscarinic receptors, determined according to Watson et al., Pharmacol. Exp. Ther. 237 (1986), 419 and according to Eberlein et al., Trends Pharmacol. Science 10 (1989), 50.

[3] = tested on: M1; test: Muscarinic M1 receptor binding, [3H]-Pirenzepine
Description: as §1

[4] = tested on: M2; test: Muscarinic M2 receptor binding, [3H]-AFDX 384
Description: as §1

[5] = tested on: muscarinic receptors; test: Affinity for muscarinic receptors (Watson et al.; Eberlein et al.); type: binding
Description: as §1

[6] = tested on: muscarinic receptors; test: Antagonism of contraction of guinea pig plexus myentericus preparation induced by muscarinic agonists (Kilbinger et al.); conditions: micromolar concentrations
[7] = tested on: rat; test: Toxicity, lowest lethal dose (LLD), rat; conditions: sc rat

acetylcholine esterase, sequence (P22303 32-614): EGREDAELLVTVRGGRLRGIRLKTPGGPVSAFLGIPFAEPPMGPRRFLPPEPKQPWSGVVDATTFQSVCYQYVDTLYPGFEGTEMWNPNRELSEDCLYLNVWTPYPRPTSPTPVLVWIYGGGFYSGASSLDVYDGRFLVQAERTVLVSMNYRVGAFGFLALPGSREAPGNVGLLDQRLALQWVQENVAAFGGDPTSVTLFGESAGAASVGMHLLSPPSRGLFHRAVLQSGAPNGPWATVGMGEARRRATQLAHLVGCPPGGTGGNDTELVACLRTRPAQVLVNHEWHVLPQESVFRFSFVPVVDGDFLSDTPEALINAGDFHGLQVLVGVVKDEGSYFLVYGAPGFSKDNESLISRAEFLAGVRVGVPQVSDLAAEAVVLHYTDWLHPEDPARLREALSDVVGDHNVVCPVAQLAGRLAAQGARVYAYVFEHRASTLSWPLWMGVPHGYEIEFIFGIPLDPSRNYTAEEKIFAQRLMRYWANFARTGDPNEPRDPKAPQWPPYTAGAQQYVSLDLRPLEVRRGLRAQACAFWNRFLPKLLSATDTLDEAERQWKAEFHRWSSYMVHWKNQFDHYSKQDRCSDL

CN(C)C(=O)Oc1cccc2c1CC[C@H]1[C@@H]2CCN1CCC1CCCCC1.Cl (single isomer, unassigned) [A, (+)-cis-3-(2-cyclohexylethyl)-2,3,3a,4,5,9b-hexahydro-1H-benzo[e]indol-6-yl dimethylcarbamate hydrochloride]
IC50 [1]: 22 nM
affinity for sigma receptors (in words) [2]: affinity to sigma receptors
Percentage inhibition ([2]; 10^-5 M): 100.7%
Percentage inhibition ([2]; 10^-7 M): 62.1%
Percentage inhibition ([3]; 10^-5 M): 87.9%
Percentage inhibition ([3]; 10^-7 M): 2.2%
Percentage inhibition ([4]; [3H]-AFDX 384, 10^-5 M): 94.8%
Percentage inhibition ([4]; [3H]-AFDX 384, 10^-7 M): 31.3%
affinity for muscarinic receptors (in words) [5]: preferential affinity for muscarinic receptors of the M2 type
antagonism of contraction induced by muscarinic agonists (in words) [6]: in micromolar concentrations it antagonizes a contraction of a preparation of guinea pig plexus myentericus induced by muscarinic agonists
LLD (lowest lethal dose) [7]: 30 mg/kg
